Test results taken from patent US7172907B2, “Cyanine dye labelling reagents with meso-substitution” (GE Healthcare Bio-Sciences Corp., priority 2003, dated 2007).

Key:
[1] = Photostability: ethanolic solution left in the room light, fading of the dyes; type: physicochemical
[2] = Hydrolytic stability in de-ionized water, fading of the dyes; type: physicochemical
[3] = background values for known Cy dyes, X = Y = C(CH3)2; cited from earlier work
[4] = Absorption and emission spectra of meso-cyano Cy5 in MeOH; type: physicochemical
Protocol: (§1) 2-{N-Acetyl-N-phenyl}aminoethenyl-1,3,3-trimethylindoleriine and 2-{N-acetyl-N-phenyl}aminoethenyl-1-{6-carboxypentyl}-3,3-trimethylindolenine (20 mmoles of each) and 10 equivalents of cyanoacetic acid in pyridine (100 ml) were heated under reflux under Argon for 4 hours. At the end of the reaction, the pyridine was evaporated and the product purified by repeated HPLC purification followed by silica gel column chromatography with increasing amounts of MeOH in ethyl acetate as the eluant to give a pure product, 2-{5-[1-(5-carboxypentyl)-3,3-dimethyl-1,3-dihydro-2H-indol-2-ylidene]-3-cyano-1,3-pentadienyl}-1,3,3-trimethyl-3H-indolinium (meso-cyano Cy5). Absorption maximum (MeOH): 610 nm: Emission maximum (MeOH): 628 nm; Quantum yield: 0.65 that of Cy5.

[5] = Fluorescence quantum yield relative to Cy5; type: physicochemical; details: expressed as fraction of that of Cy5
Protocol: as §1

Photostability: half-life (t1/2) for fading of the dyes [1] | Hydrolytic stability: half-life (t1/2) for fading of the dyes ([2]; pH=6.85) | Absorption maximum [4] | Emission maximum [4] | Quantum yield [5] | half-life ([1]; read-out: Photostability: half-life (t1/2) for fading of the dyes) | half-life ([2]; pH=6.85, read-out: Hydrolytic stability: half-life (t1/2) for fading of the dyes) | Molecule | Abs max [3] | Em max [3]
22 h | 56 h |  |  |  |  |  | CCN1/C(=C/C=C/C=C/C2=[N+](CCCCCC(=O)O)c3ccc(S(=O)(=O)O)cc3C2(C)C)C(C)(C)c2cc(S(=O)(=O)[O-])ccc21 [Cy5] | 649 nm | 670 nm
 |  |  |  |  |  |  | Cy5.5 | 675 nm | 694 nm
 |  | 610 nm | 628 nm | 0.65 | > 75 h | > 150 h | CN1/C(=C/C=C(C#N)/C=C/C2=[N+](CCCCCC(=O)O)c3ccccc3C2(C)C)C(C)(C)c2ccccc21 [meso-cyano Cy5, 2-{5-[1-(5-Carboxypentyl)-3,3-dimethyl-1,3-dihydro-2H-indol-2-ylidene]-3-cyano-1,3-pentadienyl}-1,3,3-trimethyl-3H-indolinium] |  | 
 |  |  |  |  |  |  | CCN1C(=CC=CC2=[N+](CCCCCC(=O)O)c3ccc(S(=O)(=O)O)cc3C2(C)C)C(C)(C)c2cc(S(=O)(=O)[O-])ccc21 [Cy3] | 550 nm | 570 nm
